Assay results as given in the supplement of paper PMC11061612.

How the values were obtained:
Experiment in all cases: Bliss excess, mean over the matrix (fraction); higher = more synergy
[1] = tested on: COR-L105 (Lung Adenocarcinoma)
In short: (§1)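 Cell lines grown in DMEM/F12 or RPMI with 10% FBS were plated in 1536-well plates and held 24 hours at 37°C, 5% CO2 before 72 hours of exposure to two-drug dose matrices, with DMSO typically at 0.2%. CellTiter-Glo 2.0 luminescence gave viability, which was converted to inhibition. Vehicle wells were set to 0 and blank wells to 1. Combination Emax is the second-highest inhibition in the matrix, and Bliss excess is the observed combination effect minus the expected EA + EB − EA·EB, where EA and EB are the single-agent effects.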

[2] = tested on: TK (B-Cell Non-Hodgkin's Lymphoma)
In short: as §1

[3] = tested on: SBC-3 (Small Cell Lung Carcinoma)
In short: as §1

[4] = tested on: ATN-1 (T-Lymphoblastic Leukemia)
In short: as §1

C32 (Melanoma) = tested on: C32 (Melanoma)
In short: as §1

[5] = tested on: C2BBe1 (Colorectal Carcinoma)
In short: as §1

[6] = tested on: NCI-H1435 (Non-Small Cell Lung Carcinoma)
In short: as §1

[7] = tested on: OCI-M1 (Acute Myeloid Leukemia)
In short: as §1

[8] = tested on: NCI-H1944 (Lung Adenocarcinoma)
In short: as §1

[9] = tested on: JURL-MK1 (Chronic Myelogenous Leukemia)
In short: as §1

[10] = tested on: NCI-H2009 (Lung Adenocarcinoma)
In short: as §1

[11] = tested on: NTERA-2-cl-D1 (Other Solid Carcinomas)
In short: as §1

[12] = tested on: SW1463 (Colorectal Carcinoma)
In short: as §1

NCI-H2452 (Mesothelioma) = tested on: NCI-H2452 (Mesothelioma)
In short: as §1

[13] = tested on: BT-474 (Breast Carcinoma)
In short: as §1

[14] = tested on: L-363 (Plasma Cell Myeloma)
In short: as §1

[15] = tested on: CAL-85-1 (Breast Carcinoma)
In short: as §1

MG-63 (Osteosarcoma) = tested on: MG-63 (Osteosarcoma)
In short: as §1

[16] = tested on: IGROV-1 (Ovarian Carcinoma)
In short: as §1

Structure (SMILES)	Bliss excess [1]	Bliss excess [2]	Bliss excess [3]	Bliss excess [4]	Bliss excess (C32 (Melanoma))	Bliss excess [5]	Bliss excess [6]	Bliss excess [7]	Bliss excess [8]	Bliss excess [9]	Bliss excess [10]	Bliss excess [11]	Bliss excess [12]	Bliss excess (NCI-H2452 (Mesothelioma))	Bliss excess [13]	Bliss excess [14]	Bliss excess [15]	Bliss excess (MG-63 (Osteosarcoma))	Bliss excess [16]
CN(C)CCCOc1ccc(-c2ccc3ncc4c(c3c2)n(C2CCOCC2)c(=O)n4C)cn1 [AZD0156] + C=CCn1c(=O)c2cnc(Nc3ccc(N4CCN(C)CC4)cc3)nc2n1-c1cccc(C(C)(C)O)n1 [AZD1775] (first compound max 1 µM, partner max 1 µM)	-0.0414	-0.0045	-0.0451	0.0198	-0.0348	0.0003	-0.0201	0.0077	-0.0218	0.0119	-0.0695	-0.0807	-0.0323	-0.0253	-0.0647	0.0057	-0.0155	-0.0428	-0.0826
CCN(CCO)CCCOc1ccc2c(Nc3cc(CC(=O)Nc4cccc(F)c4)[nH]n3)ncnc2c1 [AZD2811] + C[C@@H]1COCCN1C2=NC(=NC(=C2)C3(CC3)[S@](=N)(=O)C)C4=C5C=CNC5=NC=C4 [AZD6738] (first compound max 1 µM, 7x7, partner max 10 µM)	-0.0679	-0.0108	-0.0369	-0.0839	-0.0803	-0.0362	-0.0311	0.0009	-0.0415	0.027	-0.0359	-0.065	-0.0218	-0.0756	-0.0291	-0.0485	0.0098	0.011	-0.0453
C=CCn1c(=O)c2cnc(Nc3ccc(N4CCN(C)CC4)cc3)nc2n1-c1cccc(C(C)(C)O)n1 [AZD1775] + O=C(c1cc(Cc2n[nH]c(=O)c3ccccc23)ccc1F)N1CCN(C(=O)C2CC2)CC1 [Olaparib] (first compound max 1 µM, partner max 10 µM)	-0.0881	-0.0318	0.0028	-0.0189	-0.0271	-0.0322	0.0211	-0.0374	-0.043	0.001	0.0075	0.107	-0.0418	-0.0608	-0.0611	-0.0153	-0.055	-0.0548	-0.0797
CC1(C)CCC(CN2CCN(c3ccc(C(=O)NS(=O)(=O)c4ccc(NCC5CCOCC5)c([N+](=O)[O-])c4)c(Oc4cnc5[nH]ccc5c4)c3)CC2)=C(c2ccc(Cl)cc2)C1 [Venetoclax] + COc1cc(Nc2ncc3c(n2)-c2ccc(Cl)cc2C(c2c(F)cccc2OC)=NC3)ccc1C(=O)O [Alisertib] (first compound max 1 µM, 7x7, partner max 10 µM)	-0.0741	0.223	0.0101	-0.013	0.0269	-0.0271	-0.0522	0.0977	-0.0192	-0.0542	0.0023	0.0304	0.017	0.0053	-0.0136	-0.0115	-0.007	-0.0116	-0.0588
CN(C)CCCOc1ccc(-c2ccc3ncc4c(c3c2)n(C2CCOCC2)c(=O)n4C)cn1 [AZD0156] + C[C@@H]1COCCN1C2=NC(=NC(=C2)C3(CC3)[S@](=N)(=O)C)C4=C5C=CNC5=NC=C4 [AZD6738] (first compound max 1 µM, 7x7, partner max 10 µM)	-0.0779	0.0289	0.0039	-0.0052	-0.0323	-0.0234	-0.0134	0.0352	0.0062	0.0269	-0.0045	-0.0472	-0.0057	-0.0547	-0.0416	0.0767	0.0042	-0.0056	-0.0187
C=CCn1c(=O)c2cnc(Nc3ccc(N4CCN(C)CC4)cc3)nc2n1-c1cccc(C(C)(C)O)n1 [AZD1775] + C[C@@H]1COCCN1C2=NC(=NC(=C2)C3(CC3)[S@](=N)(=O)C)C4=C5C=CNC5=NC=C4 [AZD6738] (first compound max 1 µM, partner max 10 µM)	-0.0411	0.0031	0.0197	-0.0076	0.0073	0.0278	0.0291	0.0327	0.0456	0.0515	0.0987	0.0123	-0.0807	-0.0518	-0.0425	0.0474	-0.0511	0.0271	-0.0348
CC1(C)CCC(CN2CCN(c3ccc(C(=O)NS(=O)(=O)c4ccc(NCC5CCOCC5)c([N+](=O)[O-])c4)c(Oc4cnc5[nH]ccc5c4)c3)CC2)=C(c2ccc(Cl)cc2)C1 [Venetoclax] + C=CCn1c(=O)c2cnc(Nc3ccc(N4CCN(C)CC4)cc3)nc2n1-c1cccc(C(C)(C)O)n1 [AZD1775] (first compound max 1 µM, partner max 1 µM)	-0.0095	0.0168	0.043	0.0707	0.0075	0.0124	-0.0029	-0.0505	-0.0808	-0.0214	-0.0212	-0.0202	-0.0942	0.0036	-0.0668	0.0933	-0.0334	-0.0048	-0.0952
Cc1c2c(nn1C)CSCc1cc(n(C)n1)CSc1cc(c3ccccc3c1)OCCCc1c(C(=O)O)n(C)c3c-2c(Cl)ccc13 [AZD5991] + Cn1cnc2c(F)c(Nc3ccc(Br)cc3Cl)c(C(=O)NOCCO)cc21 [Selumetinib] (first compound max 1 µM, 7x7, partner max 3 µM)	-0.0263	-0.009	-0.0674	-0.0672	0.0678	-0.0033	0.0727	0.03	0.027	0.0259	0.0176	0.0115	-0.0352	0.0633	-0.0205	0.0099	-0.0162	-0.042	0.0372
CC1(C)CCC(CN2CCN(c3ccc(C(=O)NS(=O)(=O)c4ccc(NCC5CCOCC5)c([N+](=O)[O-])c4)c(Oc4cnc5[nH]ccc5c4)c3)CC2)=C(c2ccc(Cl)cc2)C1 [Venetoclax] + Cn1cnc2c(F)c(Nc3ccc(Br)cc3Cl)c(C(=O)NOCCO)cc21 [Selumetinib] (first compound max 1 µM, 7x7, partner max 3 µM)	-0.0491	-0.0251	-0.032	-0.0324	-0.0278	-0.102	0.0021	-0.0203	-0.0356	-0.0249	-0.024	-0.0415	-0.0631	-0.0501	-0.0419	0.0023	-0.0368	-0.0292	-0.0068
Cc1c2c(nn1C)CSCc1cc(n(C)n1)CSc1cc(c3ccccc3c1)OCCCc1c(C(=O)O)n(C)c3c-2c(Cl)ccc13 [AZD5991] + C=CCn1c(=O)c2cnc(Nc3ccc(N4CCN(C)CC4)cc3)nc2n1-c1cccc(C(C)(C)O)n1 [AZD1775] (first compound max 1 µM, partner max 1 µM)	-0.0025	-0.0721	-0.0043	-0.0027	0.0452	0.0165	0.0568	0.0066	-0.0472	0.0395	-0.0051	0.0383	-0.0158	0.0015	-0.0298	0.0077	-0.0194	-0.0317	0.0847
Cc1c2c(nn1C)CSCc1cc(n(C)n1)CSc1cc(c3ccccc3c1)OCCCc1c(C(=O)O)n(C)c3c-2c(Cl)ccc13 [AZD5991] + C[C@@H](Nc1cc(F)cc(F)c1)c1cc(C(=O)N(C)C)cc2c(=O)cc(N3CCOCC3)oc12 [AZD8186] (first compound max 1 µM, 7x7, partner max 3 µM)	-0.0864	-0.0143	-0.0341	-0.0131	0.0051	-0.026	0.0131	-0.0343	-0.0141	-0.0112	-0.0076	0.0081	-0.0398	0.0441	-0.0099	-0.0476	-0.0067	-0.0213	-0.0611
CCN(CCO)CCCOc1ccc2c(Nc3cc(CC(=O)Nc4cccc(F)c4)[nH]n3)ncnc2c1 [AZD2811] + O=C(c1cc(Cc2n[nH]c(=O)c3ccccc23)ccc1F)N1CCN(C(=O)C2CC2)CC1 [Olaparib] (first compound max 1 µM, 7x7, partner max 10 µM)	-0.0311	0.0322	0.0475	-0.0849	-0.0056	-0.0112	0.0111	0.0337	0.0069	0.073	0.0113	0.066	0.0014	-0.0675	-0.0079	0.0025	-0.0246	0.0197	0.0329
